Measurements: US20150250864A1, “ANTI-CANCER VACCINES” (Board of Regents, The University of Texas System, priority 2012, published 2015)

Assays:
Type in all cases: cell-based, human
[1] = system: T cells in PBMCs; assay: IFN-γ release by ELISA from PBMC stimulated with peptides or protein; conditions: for IFN-γ release (OD values): stimulated PBMC, FIG. 21A
Text: FIG. 17. T cell stimulation by HERV-K peptides. Peptides (p73-76 and p18-135) or HERV-K SU fusion proteins were used to stimulate PBMC and evaluated in vitro for their ability to stimulate T cells in PBMCs from healthy subjects (ND1007083; left) and/or cancer patients (BC 243; right), based on interferon-γ(IFN-γ) release by ELISA. KLH peptide and GST protein were used as controls. Other negative controls included media only, DMSO, and PBS.
FIG. 18. T cell stimulation by HERV-K peptides. Peptides (p73-76: left; and p18-135: middle) or HERV-K SU fusion proteins (right) were used to stimulate PBMC and evaluated in vitro for their ability to stimulate T cells in PBMCs from healthy subjects and/or cancer patients (BC 243; middle), based on interferon-γ (IFN-γ) release by ELISA. OD values of interferon-γ (IFN-γ) release were compared between normal donors (ND447549, ND1001366, and ND1007083) and cancer patients (OC222, OC 210, OC212, and BC243). OC is ovarian cancer and BC is breast cancer
FIGS. 21A-C. T Cell Stimulation. 9 mer Peptides (HERVK-3, HERVK-4, HERVK-11, and HERVK-18; see Table 1), p73-76 and p18-135 (Table 1 178 and 179), or HERV-K SU fusion proteins were used to stimulate PBMC and evaluated in vitro for their ability to stimulate T cells in PBMCs from healthy subjects and/or cancer patients, based on IFN-γ and Granzyme B release by ELISA. (FIG. 21A) OD values of IFN-γ release were compared in a normal donor (ND291812). (FIG. 21B) OD values of IFN-γ release were compared between a normal donor (ND291817) and an ovarian cancer patient (OC153). (FIG. 21C) OD values of Granzyme B release were compared between a normal donor (ND291817) and an ovarian cancer patient (OC153). Each dot represents an individual clone. Negative controls measured release of effector molecules from cancer cells after treatment with supernatants obtained from PBMCs without stimulation with HERV-K peptides or protein; positive controls were stimulated with PMA/ONO.
Cancer patients were enrolled to evaluate HERV-K as a tumor associated antigen target. Patients provided written informed consent as part of an approved protocol (LAB04-0083) at MD Anderson Cancer Center prior to commencing the studies. Normal healthy donor control blood samples were obtained from Gulf Coast Regional Blood Center, Houston Tex. 40 mL of peripheral blood was obtained from each patient, and peripheral blood mononuclear cells (PBMCs) were isolated by density gradient centrifugation using Histopaque-1077 (Sigma-Aldrich; USA). HLA-A*02 expression in PBMCs obtained from cancer patients and healthy subjects was determined by flow cytometry with PE Mouse anti-human HLA-A2 mAb BB7.2 (BD Pharmingen; San Diego, Calif., USA). Mouse IgG2b was used as an isotype control. PBMCs (5×10^5 cells/well) from either healthy subjects or cancer patients were incubated with Peptide #18-135 ([…]; SEQ ID NO: 178), Peptide #73-76 ([…]; SEQ ID NO: 179) or KLH as control peptide) or proteins (HERV-K env SU protein or GST protein as control) at concentrations of 40 μg/mL in 96-well U-bottom microplates (BD; Franklin Lakes, N.J., USA) in 100 μL of T-cell medium (TCM), consisting of RPMI 1640 (Mediatech; Manassas, Va., USA), 10% human AB serum (Valley Biomedical, Winchester, USA), […] 2-mercaptoethanol, 100 IU/mL interleukin-2 (IL-2), and 0.1 mM MEM nonessential amino acid solution (Invitrogen; Grand Island, N.Y., USA). Half of the TCM was removed and replaced with fresh TCM containing peptides (20 μg/mL) on day 7. After 14 days of culture, the supernatants from cell culture media (PBMC pulsed with peptides or proteins) were harvested and tested for their ability to produce IFN-gamma or IL-2, and granzyme B release was also determined by enzyme-linked immunosorbent assay (ELISA) assay. In order to detect the secreted cytokine in this assay, high-binding plates were coated with 5 μg/ml anti-IFN-γ (Mabtech, Stockholm, Sweden) diluted in PBS buffer at 4° C. overnight. […]

[2] = system: T cells in PBMCs; assay: Granzyme B release by ELISA from PBMC stimulated with peptides or protein; conditions: breast cancer patient (BC243) vs 3 normal donors
Text: (§1) FIG. 19. T cell stimulation by HERV-K peptides. Peptides (p73-76 and p18-135) or HERV-K SU fusion proteins were used to stimulate PBMC and evaluated in vitro for their ability to stimulate T cells in PBMCs from healthy subjects and/or cancer patients, based on Granzyme B (Top panel) and interlukin-2 (IL-2; bottom panel) release by ELISA. OD values of Granzyme B or IL-2 release were compared between normal donors (ND427478, ND329966, and ND341277) and cancer patients (BC243 and OC212).
(§2) Cancer patients were enrolled to evaluate HERV-K as a tumor associated antigen target. Patients provided written informed consent as part of an approved protocol (LAB04-0083) at MD Anderson Cancer Center prior to commencing the studies. […] HLA-A*02 expression in PBMCs obtained from cancer patients and healthy subjects was determined by flow cytometry with PE Mouse anti-human HLA-A2 mAb BB7.2 (BD Pharmingen; San Diego, Calif., USA). […] After 14 days of culture, the supernatants from cell culture media (PBMC pulsed with peptides or proteins) were harvested and tested for their ability to produce IFN-gamma or IL-2, and granzyme B release was also determined by enzyme-linked immunosorbent assay (ELISA) assay. […] Absorbance was measured after 10 min of incubation in the dark and the plate was read on a Wallac Victor 2 V Microplate Reader (PerkinElmer, Waltham, Mass.). […]

[3] = system: T cells in PBMCs; assay: IL-2 release by ELISA from PBMC stimulated with peptides or protein; conditions: normal donors vs cancer patients
Text: as §1, §2

[4] = system: IVS cells; assay: IFN-γ ELISPOT of IVS cells stimulated with HERV-K SU or TM antigen; conditions: ovarian cancer patient compared with normal female donor(s)
Text: FIGS. 2A-D. IFN-γ ELISPOT was used to determine HERV-K-specific T cell response. (FIG. 2A) More spots (red box) were detected in IVS cells (DC+KSU) from an ovarian cancer patient with moderately to poorly differentiated adenocarcinoma, in comparison to three normal female donors (ND263559, 273010, and 273011; black boxes) stimulated with a single HERV-K SU protein. […] (FIG. 2B) More spots (red box for KSU and green box for KTM) were detected in IVS cells (DC+KSU) from an ovarian cancer patient (Acc 153) with high grade papillary serous carcinoma before surgery (0 month) or after surgery (6 months), compared to one normal donor (ND 273011) stimulated one time with HERV-K SU protein. IVS cells were generated from PBMC stimulated with a single HERV-K SU or TM antigen. No spot was detected in controls using KLH as antigen. (FIG. 2C) IFN-γ spots were detected in IVS cells (1×10^5 cells loaded) from cancer patients (#816463 and #618329: blood collected 6 months after surgery) but not in a breast cancer patient with invasive ductal carcinoma (#814349, collected 6 months after surgery) or a patient (717335) with a mass (no malignancy identified), stimulated one time with either HERV-K SU (surface domain of env protein) or TM (transmembrane domain) protein. DC pulsed with KLH served as control. […]

Substance	IFN-γ release ([1]; peripheral T cells from both healthy subjects (ND1007083) and cancer patients (BC 243))	IFN-γ release (OD values) [1]	granzyme B release [2]	IL-2 release [3]	IFN-γ release ([1]; peripheral T cells from most cancer patients (OC222, OC210, OC212, BC 243))	number of IFN-γ spots in IVS cells [4]
IINLILILVCLFCLLLVCRCTQQLR [Peptide #18-135]	induce IFN-γ release	Higher IFN-γ release	to a greater extent than in 3 normal donors	in normal donors to a greater extent than in cancer patients	–	–
SQTITCENCRLLSCIDSTFNWQHRILL [Peptide #73-76]	–	Higher IFN-γ release	to a greater extent than in 3 normal donors	in normal donors to a greater extent than in cancer patients	induce IFN-γ release	–
keyhole limpet hemocyanin [KLH]	–	–	–	–	–	No spots were detected
